Measured values as given in patent US4402942A, “Oxytocin derivatives” (Ferring AB, priority 1980, dated 1983).

How the values were obtained:
isolated rat uterus = assay: Uterotonic potency on isolated rat uterus with oxytocin as standard; type: cell-based; settings: rat in vitro
Description: The known compounds 2-O-methyltyrosine-oxytocin and 2-O-ethyltyrosine-oxytocin and a representative compound according to the invention, viz. 1-deamino-(2-O-ethyltyrosine)-oxytocin, was examined with regard to uterotonic potency on isolated rat uterus with use of oxytocin as standard. The antagonistic properties of the compounds were also evaluated with the aid of said preparation, but also in vivo with use of oxytocin as agonist. Moreover, the inhibition of oxytocin effect on isolated human myometrium was examined.
Sprague Dawley rats (body weight approximately 250 g) in natural estrous were selected by vaginal smears. […] Contractions were recorded isometrically at a resting tension of 1.5 g using Grass force transducers (Ft. 03). Antagonistic potency of the analogues was calculated as pA2 values (Rudinger, J. & Krejci, I. Experientia 18, (1962), 585-588). pA2 is a measure of the inhibitory property of the peptide and was defined by Schild (Schild, H. O., British Journal of Pharmacology, 2, (1947), 189-206) as the negative logarithm of the molar concentration of an antagonist which reduces the effect of a dose of agonist to that of half the dose.

[1] = system: rat uterus preparations stimulated with oxytocin; assay: Antagonistic activity (pA2) on rat uterus preparations in vitro stimulated with oxytocin; type: cell-based; settings: oxytocin as agonist
Description: Sprague Dawley rats (body weight approximately 250 g) in natural estrous were selected by vaginal smears. An approximately 20 mm long segment was cut from the middle of a uterine horn and mounted in an organ bath containing 10 ml of a modified Locke's solution of the following composition (mM:NaCl 153, KCl 5.63, CaCl2 0.541, NaHCO3 5.95 and glucose 2.78). The solution was gassed with 5% CO2 in oxygen at 30° C. The uterine contractions were allowed to stabilize for 30 minutes. Contractions were recorded isometrically at a resting tension of 1.5 g using Grass force transducers (Ft. 03). Antagonistic potency of the analogues was calculated as pA2 values (Rudinger, J. & Krejci, I. Experientia 18, (1962), 585-588). pA2 is a measure of the inhibitory property of the peptide and was defined by Schild (Schild, H. O., British Journal of Pharmacology, 2, (1947), 189-206) as the negative logarithm of the molar concentration of an antagonist which reduces the effect of a dose of agonist to that of half the dose.

[2] = system: isolated human myometrium (pregnant), oxytocin induced contractions; assay: Inhibition of oxytocin induced contractions of isolated uterine tissue from pregnant women; type: cell-based; settings: in vitro
Description: From 17 patients undergoing caesarean section (week 37-40) a transverse segment of uterine tissue was excised from the isthmic part of the uterus. Tissue pieces were also excised from the ventral side of the uterus of 21 non-pregnant women in fertile age undergoing hysterectomy. The tissue pieces were immediately placed in Krebs-Ringer solution (mM: NaCl 118, KCl 4.6, CaCl2 2.5, MgSO4 1.15, NaHCO3 24.9, KH2 PO4 1.15 and glucose 5.5) at 0° C. and used within two hours after the operation. Segments pieces 25×3×3 mm large were mounted in an organ bath containing 10 ml Krebs-Ringer solution at 37° C. and gassed with 5% CO2 in oxygen. After an adaptation period of 30 minutes contractions were isometrically recorded at a resting tension of 1.25 g. In experiments involving pregnant women use was made of oxytocin (0.013-1.3 μg/ml) as an agonist. Lysinevasopressin (0.07-1.3 μg/ml) was used as an agonist where non-pregnant tissue was tested. A suitable dose of agonist was selected, which gave an effect corresponding to approximately 40% of the maximum effect. The antagonist was used in a concentration of 0.33-1.32 μg/ml. […] The inhibitory effect of the antagonist was measured by planimetry, for 15 minutes after the addition of the peptide, of the total surface of the curve recorded. Inhibition was expressed as a percentage of the effect obtained with the agonist alone.

[3] = system: uterine contractions caused by infusion of oxytocin; assay: Rat in vivo uterine contractions under oxytocin infusion; settings: for complete block of the uterine contraction pattern (oxytocin initiated and spontaneous): dose of 2 μg; for inhibition of the increase of strength of uterine contractions caused by oxytocin infusion: oxytocin 0.05 μg/min/100 g body weight
Description: Sprague Dawley rats (250 g) in natural estrous were anaesthetized with Inactin (0.5 mg/100 g body weight i.p.). Myometrial activity was recorded by means of a catheter fixed in the uterine cavity and filled with modified Locke's solution. The catheter was connected to a Statham P23d transducer and contractions were recorded on a Grass polygraph (model 7D). Oxytocin was infused intravenously (0.05 μg/min/100 g body weight). When a regular contraction pattern had been obtained the antagonist (0.8-8.0 μg/100 g body weight) was administered intravenously in a volume of 0.2 ml. The recorded curve was integrated over 10 minute intervals immediately before and after injection of the antagonist.

[4] = system: oxytocin induced uterine contractions; settings: literature, studies on rats; cited from earlier work
[5] = Blood pressure after intravenous dose; type: in vivo; settings: 30 μg intravenously
[6] = system: spontaneous uterine function; settings: Swedish patent 7713/70; cited from earlier work

| Compound | uterotonic potency (isolated rat uterus) | pA2 (average ± average error) [1] | inhibition of oxytocin induced contractions [2] | complete block of the uterine contraction pattern (oxytocin initiated and spontaneous) [3] | inhibition of the increase of strength of uterine contractions caused by oxytocin infusion [3] | effect on oxytocin induced uterine contractions [4] | effect on the blood pressure [5] | effect on the spontaneous uterine function [6] |
| --- | --- | --- | --- | --- | --- | --- | --- | --- |
| 2-O-ethyltyrosine-oxytocin | 1-2 IU/mg | 7.13 ± 0.09 | a significant inhibition was obtained, which was however considerably lower than with use of the compound according to the invention | lack this ability | dose dependent reversible inhibition | antagonistic effect |  |  |
| 2-O-methyltyrosine-oxytocin | 1-2 IU/mg | 6.68 ± 0.12 |  | lack this ability | dose dependent reversible inhibition | antagonistic effect |  |  |
| CCOc1ccc(C[C@@H]2NC(=O)CCSSC[C@@H](C(=O)N3CCC[C@H]3C(=O)N[C@@H](CC(C)C)C(=O)NCC(N)=O)NC(=O)[C@H](CC(N)=O)NC(=O)[C@H](CCC(N)=O)NC(=O)[C@H]([C@@H](C)CC)NC2=O)cc1 [1-deamino-2-O-ethyltyrosine-oxytocin] |  | 7.19 ± 0.10 |  |  |  |  | no effect at all on the blood pressure |  |
| N^α -acetyl-2-O-methyltyrosine-oxytocin |  |  |  |  |  | antagonistic effect |  | no effect on the spontaneous uterine function |
| [1-deaminopenicillamine,2-O-methyltyrosine]oxytocin |  |  |  |  |  | antagonistic effect |  |  |
